Results as given in US20260248087A1, “GENERATING DOUBLED HAPLOID PLANTS” (Syngenta Crop Protection AG, priority 2023, published 2026).
“And” between values parts separate entries of the source, which are not always exact repeats. Identical values can stand only once.

Experiments:
[1] = tested on: embryos from maize ears; test: Potting and transplant rate, co-treatment with metcamifen and thiamethoxam during colchicine doubling; format: in vivo
Text: (§1) As used herein, the term “potted rate” or “potting rate” refers to the percent of germinated embryos successfully transferred to soil from total treated haploid embryos. The “potted rate” is used as an indication of plant health in monitoring the success of recovery and growth after treatment of haploids. As used herein, the term “transplant rate” refers to the survival of healthy plants after embryos were germinated and transferred to soil.
(§2) To assess the impact of the safener and vigor enhancing compounds on the full DH production pipeline, experiments were designed and conducted spanning haploid embryo isolation, doubling treatment, germination, potting, growth to maturity, selfing, and seed set evaluation. Embryos from maize ears of two genotypes were isolated and co-treated with both metcamifen and thiamethoxam during the colchicine doubling treatment, in triplicate. Metcamifen was added in the Murashige and Skoog Medium (MS medium) at concentrations ranging from 400 to 800 mg/L in combination with TMX at concentrations ranging from 4000 to 6000 mg/L. Control co-treatments with metcamifen alone, TMX alone, or colchine-only were run in parallel. Concentrations for co-treatments were selected based on best outcomes from experiments in Examples 1-8. The co-treatments incubated for 24 and 48 hours at 28° C. with 150 PAR light. Resulting embryos were germinated and the percentage of embryos successfully transferred to soil was measured as the potting rate. The survival of healthy plants was measured as the transplant rate.

[2] = tested on: GST27; test: GST27 induction, metcamifen and thiamethoxam co-treatment in liquid medium; format: cell-based, maize
Method: For the examples below, GST27 was used as a quick indicator for treatment effectiveness.
(§3) Isolated embryos were placed in a Petri dish on filter paper wetted with liquid Murashige and Skoog Medium (MS medium) containing colchicine and a formulation of metcamifen at 800 mg/L, TMX at 4000 mg/L, or a combination of 800 mg/L metcamifen and 4000 mg/L TMX. The colchicine treatment control used the same conditions except with a medium containing 3.5 g/L Gelzan as compared to the liquid medium without Gelzan. The co-treatments incubated for 24 or 48 hours at 28° C. with 150 PAR light and were conducted on 2 genotypes with 2 replicates. The effects on GST expression, potting rate, and transplant rate are reported (see Table 16). The rate of diploid escapes observed increased to 6.4-8.5% in the 24-hour co-treatments with 4000 mg/L TMX and 4000 mg/L TMX combined with 800 mg/L metcamifen. In all other co-treatments, the escape rate was 0%. […] The best transplant rates observed were in the 24-hour duration 4000 mg/L TMX co-treatment (90%) compared to the control (72%).
(§4) In a separate experiment, additional concentrations of metcamifen and TMX co-treatment were tested in liquid co-treatments. The experimental setup was the same as described above for the data in Table 16, but the co-treatment concentrations were varied. […] The decreased concentrations were associated with lower rates of escapes in the 24-hour co-treatments, only the metcamifen with TMX combination co-treatment produced escapes (1.8%). Potting and transplant rates remained high, with the best performance in the 24-hour metcamifen with TMX combination co-treatment (96% potting, and 87% transplant) compared to the colchicine-only control (60% potting, and 47% transplant) (see Table 17). In all liquid media co-treatments, higher rates of bacterial and/or fungal contamination were observed. In total, 35% of the attempted experiments were discarded due to contamination issues and excluded from the data analysis.

[3] = tested on: embryos from maize ears; test: Ear kernel setting rates and DH yield after co-treatment with metcamifen and thiamethoxam; format: in vivo; conditions: for Ears >4 Rate Mean / Ears >49 Rate Mean: co-treatment with colchicine
Method: as §2, with “transplant rate. […]” for “transplant rate.”
One way of measuring the success of DH production is a ratio of output:input, defined as “DH yield”, where a larger ratio is typically desirable for a more efficient production system. In this study, we measured this in two ways: DH ears/total haploid embryos and DH ears/transplants (see Table 15).

[4] = tested on: doubled haploids; test: Potting rate, thiamethoxam post-treatment during germination; format: in vivo, maize; conditions: 14-21 days
Text: as §1
TMX was applied to doubled haploids by adding it to the germination media during the germination process. TMX was tested in 3 genotypes, in triplicate, with concentrations ranging from […], and the post-treatments incubated for 14 to 21 days (the normal duration of the regeneration period before transplant). The effect on potting rate was evaluated (see Table 12); no plants were advanced for transplant rate assessments due to poor germination.

[5] = tested on: isolated embryos; test: Potting and transplant rate, metcamifen and thiamethoxam co-treatment in liquid medium; format: in vivo, maize
Text: as §1, §3, §4

[6] = Table 16, liquid medium: TMX 4000 mg/L, 24 Hour
[7] = Table 16, liquid medium: TMX 4000 mg/L, 48 Hour
[8] = Table 17, liquid medium: TMX 4000 mg/L, 24 Hour
[9] = Table 17, liquid medium: TMX 6000 mg/L, 48 Hour
[10] = Table 16, liquid medium: metcamifen 800 mg/L, 24 Hour
[11] = Table 16, liquid medium: metcamifen 800 mg/L, 48 Hour
[12] = Table 17, liquid medium: metcamifen 800 mg/L, 24 Hour
[13] = Table 17, liquid medium: metcamifen 800 mg/L, 48 Hour

CN1COCN(Cc2cnc(Cl)s2)/C1=N\[N+](=O)[O-] [TMX, thiamethoxam]
Potted Rate Mean ([1]; TMX 4000 mg/L, 48 hours): 79% | Transplant Rate Mean ([1]; TMX 4000 mg/L, 48 hours): 77% | Potted Rate Mean ([1]; TMX 6000 mg/L, 24 hours): 95% | Transplant Rate Mean ([1]; TMX 6000 mg/L, 24 hours): 93% | GST27 Induction After [2, 6]: 255 ng/mg TSP | GST27 Induction Before [2, 6]: 0 ng/mg TSP | GST27 Induction After [2, 7]: 194 ng/mg TSP | GST27 Induction Before [2, 7]: 1 ng/mg TSP | GST27 Induction After [2, 8]: 193 ng/mg TSP | GST27 Induction Before [2, 8]: 5 ng/mg TSP | GST27 Induction After [2, 9]: 208 ng/mg TSP | GST27 Induction Before [2, 9]: 13 ng/mg TSP | Ears >4 DH Yield, DH Ears/Total Haploids, Mean ([3]; TMX 4000 mg/L, 48 hours): 0.29 | Ears >4 DH Yield, DH Ears/Transplants, Mean ([3]; TMX 4000 mg/L, 48 hours): 0.37 | Ears >49 DH Yield, DH Ears/Total Haploids, Mean ([3]; TMX 4000 mg/L, 48 hours): 0.12 | Ears >49 DH Yield, DH Ears/Transplants, Mean ([3]; TMX 4000 mg/L, 48 hours): 0.16 | Ears >4 DH Yield, DH Ears/Transplants, Mean ([3]; TMX 6000 mg/L, 24 hours): 0.44 | Ears >49 DH Yield, DH Ears/Total Haploids, Mean ([3]; TMX 6000 mg/L, 24 hours): 0.20 | Ears >49 DH Yield, DH Ears/Transplants, Mean ([3]; TMX 6000 mg/L, 24 hours): 0.21 | Ears >4 Rate Mean ([3]; TMX 4000 mg/L, 48 hours): 30% | Ears >49 Rate Mean ([3]; TMX 4000 mg/L, 48 hours): 13% | Ears >4 Rate Mean ([3]; TMX 6000 mg/L, 24 hours): 45% | Ears >49 Rate Mean ([3]; TMX 6000 mg/L, 24 hours): 24% | Potting Rate Mean ([4]; TMX 0.5 g/L): 53% | Potting Rate Mean ([4]; TMX 1 g/L): 50% | Potting Rate Mean ([4]; TMX 1.5 g/L): 27% | Potting Rate Mean ([4]; TMX 5 g/L): 3% | Potting Rate Mean ([4]; TMX 12 g/L): 0% | Potting Rate Mean [5, 6]: 92.3% | Transplant Rate Mean [5, 6]: 90% and 89.7% | Potting Rate Mean [5, 7]: 79.4% | Transplant Rate Mean [5, 7]: 72.2% | Potting Rate Mean [5, 8]: 77.3% | Transplant Rate Mean [5, 8]: 81.3% | Potting Rate Mean [5, 9]: 58.0% | Transplant Rate Mean [5, 9]: 54.0%

CNC(=O)Nc1ccc(S(=O)(=O)NC(=O)c2ccccc2OC)cc1 [Metcamifen, metcamifen]
Potted Rate Mean ([1]; metcamifen 800 mg/L, 24 hours): 76% | Transplant Rate Mean ([1]; metcamifen 800 mg/L, 24 hours): 68% | Potted Rate Mean ([1]; metcamifen 800 mg/L, 48 hours): 15% | Transplant Rate Mean ([1]; metcamifen 800 mg/L, 48 hours): 15% | GST27 Induction After [2, 10]: 270 ng/mg TSP | GST27 Induction Before [2, 10]: 0 ng/mg TSP | GST27 Induction After [2, 11]: 396 ng/mg TSP | GST27 Induction Before [2, 11]: 0 ng/mg TSP | GST27 Induction After [2, 12]: 263 ng/mg TSP | GST27 Induction Before [2, 12]: 0 ng/mg TSP | GST27 Induction After [2, 13]: 340 ng/mg TSP | GST27 Induction Before [2, 13]: 4 ng/mg TSP | Ears >4 Rate Mean ([3]; metcamifen 800 mg/L, 24 hours): 38% | Ears >49 Rate Mean ([3]; metcamifen 800 mg/L, 24 hours): 24% | Ears >4 Rate Mean ([3]; metcamifen 800 mg/L, 48 hours): 9% | Ears >49 Rate Mean ([3]; metcamifen 800 mg/L, 48 hours): 4% | Ears >4 DH Yield, DH Ears/Total Haploids, Mean ([3]; metcamifen 800 mg/L, 24 hours): 0.33 | Ears >4 DH Yield, DH Ears/Transplants, Mean ([3]; metcamifen 800 mg/L, 24 hours): 0.47 | Ears >49 DH Yield, DH Ears/Total Haploids, Mean ([3]; metcamifen 800 mg/L, 24 hours): 0.21 | Ears >49 DH Yield, DH Ears/Transplants, Mean ([3]; metcamifen 800 mg/L, 24 hours): 0.30 | Ears >4 DH Yield, DH Ears/Total Haploids, Mean ([3]; metcamifen 800 mg/L, 24 hours, listed as metcamifen): increased significantly | Ears >4 DH Yield, DH Ears/Total Haploids, Mean ([3]; metcamifen 800 mg/L, 48 hours): 0.07 | Ears >4 DH Yield, DH Ears/Transplants, Mean ([3]; metcamifen 800 mg/L, 48 hours): 0.61 | Ears >49 DH Yield, DH Ears/Total Haploids, Mean ([3]; metcamifen 800 mg/L, 48 hours): 0.03 | Ears >49 DH Yield, DH Ears/Transplants, Mean ([3]; metcamifen 800 mg/L, 48 hours): 0.25 | Potting Rate Mean [5, 10]: 92.5% | Transplant Rate Mean [5, 10]: 88.2% | Potting Rate Mean [5, 11]: 21.5% | Transplant Rate Mean [5, 11]: 20.4% | Potting Rate Mean [5, 12]: 86.2% | Transplant Rate Mean [5, 12]: 74.1% | Potting Rate Mean [5, 13]: 9.2% | Transplant Rate Mean [5, 13]: 9.2%
